Experiment [1] is described as follows: Tasting in mango juice drink, 1% clear mango juice. Particulars: 0.5 ppm, 8% sucrose, 0.1% citric acid, mango flavour 0.05%. The method, then:
Comparison in a Mango Juice Drink
Base is 8% sucrose, 0.1% citric acid, 1% clear mango juice, and a proprietary mango flavour at 0.05%.
(§1) Samples were evaluated by expert tasters. Tasters were asked to describe the samples focusing on authentic taste, mouthfeel, fullness, salty-ness, salivation, umami, sweetness, juiciness, richness, long lastingness and fattiness.
Base is water, 8% sucrose, 0.1% citric acid, 1% clear mango juice, proprietary mango flavour @ 0.05%
(§2) Samples were evaluated by expert tasters. Tasters were asked to describe the samples focusing on authentic taste, mouthfeel, fullness, salivation, salty-ness, umami, sweetness, juiciness, richness, long lastingness and fattiness.
Base is water, 8% sucrose, 0.1% citric acid, 1% clear mango juice, proprietary mango flavour @0.05%
(§3) Samples were evaluated by expert tasters. Tasters were asked to describe the samples focusing on authentic taste, mouthfeel, fullness, salty-ness, salivation, umami, sweetness, juiciness, richness, long lastingness and fattiness
Base is 8% sucrose, 0.1% citric acid, 1% clear mango juice, proprietary mango flavour @ 0.05%
(§4) Samples were evaluated by expert tasters. Tasters were asked to describe the samples focusing on authentic taste, mouth feel, fullness, salivation, salty-ness, umami, sweetness, juiciness, richness, long lastingness and fattiness
Base is water, 8% sucrose, 0.1% citric acid, 1% clear mango juice, proprietary mango flavour @ 0.05%.
Test in a Mango Juice Drink

A short description of the next experiment: Test in orange beverage. Particulars: 1 ppm; water, 7% sugar (8% sucrose elsewhere in the source), 0.1% citric acid, orange flavour 0.06%. Here is the method: as §1
Base is water, 7% sugar, 0.1% citric acid, proprietary orange flavour @ 0.06%.
as §3
Base is water, 7% sugar, 0.1% citric acid, proprietary orange flavour @ 0.06%
as §4
Samples were evaluated by expert tasters. Tasters were asked to describe the samples focusing on authentic taste, mouthfeel, fullness, salivation, sweetness, juiciness, richness, long lastingness and fattiness
Comparison in an Orange Drink
Base: water, 8% sucrose, 0.1% citric acid, proprietary orange flavour @ 0.06%.

Another experiment in a line: Test on Tang. The note with it: 1 ppm, orange flavoured Tang. The method, then:
In an orange flavoured Tang powdered soft drink (market product) sweetened with sucrose plus high intensity sweetener and containing citric acid, C18:2-gaba and C18:2-pro were tested.
All samples were evaluated by expert tasters. Tasters were asked to describe the samples focusing on authentic taste, mouthfeel & body, enhancement, richness, juiciness, long lastingness, salivation, sweetness, masking off notes of high intensity sweetener
Base is Orange Flavoured Tang

A short description of experiment [2]: Tasting in mango still beverage, 6% clear mango juice. Particulars: 0.5 ppm; 6% clear mango juice (full juice). Here is the method:
(§5) Mango Flavoured Still Beverage Containing Different Levels of Juice,
(§6) In a Mango flavoured still beverage, sweetened with 8% sucrose and containing 0.1% citric acid and 1%, 4% and 6% clear mango juice flavoured with a proprietary Mango flavour @ 0.05%, C18:2-gaba and C18:2-Pro were added, as such (separate) and in combination.
(§7) All samples were evaluated by expert tasters. Tasters were asked to describe the samples focusing on authentic taste, juicy mouthfeel, enhancement, richness, juiciness, long lastingness, salivation, sweetness.
In a Mango-flavoured still beverage, sweetened with 8% sucrose & containing 0.1% citric acid and 6% clear mango juice flavoured with Mango flavour@0.05%, C18:2-gaba and C18:2-Pro were added, as such (separate) and in combination.
Base is water, 8% sucrose, 0.1% citric acid, 6% clear mango juice (full juice), flavoured with Mango flavor, dosed at 0.05%.

Experiment [3] can be described thus: Tasting in mango still beverage, 4% clear mango juice. Particulars: 0.5 ppm; 4% clear mango juice (30% reduced juice). Here is the method: as §5, §6, §7
In a Mango flavoured still beverage, sweetened with 8% sucrose & containing 0.1% citric acid and 4% clear mango juice flavoured with Mango flavour @ 0.05%, C18:2-gaba and C18:2-Pro were added, as such (separate) and in combination.
Base is water, 8% sucrose, 0.1% citric acid, 4% clear mango juice (30% reduced juice), flavoured with Mango flavor, dosed at 0.05%

Another experiment in a line: Test in lemon beverage. Particulars: 1 ppm; water, 7% sucrose, 0.15% citric acid, lemon flavor. The method, then:
as §1
Basis water, 7% sucrose, 0.15% citric acid, proprietary lemon flavor
as §3

A short description of another experiment: Tasting in fish sauce. The note with it: 0.5 ppm in pure fish sauce (27% salt). Here is the method:
(§8) The following formulations were prepared and tasted by trained panelists.
(§9) Salt level pure product between 5-40%
(§10) Salt level in application 0.3-1.0%
(§11) Samples were prepared and evaluated by expert tasters. Tasters were asked to describe the samples focusing on authentic taste, mouthfeel, fullness, salivation, salty-ness, umami, sweetness, juiciness, richness, long lastingness and fattiness.

A short description of another experiment: Tasting in beef jus. Particulars: 40 PPB in beef jus. Here is the method: as §8, §11
The nature of experiment [4]: Tasting in chicken bouillon. The note with it: 0.7% salt, 0.5% fat. Here is the method:
as §8
Standard Chicken bouillon base, 0.7% salt, 0.5% fat
as §11
Test in Soups and Bouillons
Standard Chicken Bouillon Base

Experiment [5] in a line: Tasting in spreadable cheese. The note with it: 0.5 PPM in spreadable cheese (Eru). The method, then:
as §8
(§12) Samples were prepared and evaluated by expert tasters. Tasters were asked to describe the samples focusing on authentic taste, mouthfeel, fullness, salty-ness, salivation, umami, sweetness, juiciness, richness, long lastingness and fattiness.
Test on “Eru Prestige” Spreadable Cheese
Base is Eru prestige (market product)
as §11

Experiment [6] can be described thus: Tasting on air expanded base. Particulars: 3% fat, cheese seasoning. Here is the method: as §8
An air expanded base (Rice, wheat, Tapioca, potato, salt, sugar, modified starch), containing 3% fat and flavored with cheese seasoning containing salt, MSG, dairy, organic acids, sugars and flavor. The following compounds were added to the base at the indicated levels and the tasting results are reported: […]

Experiment [7] can be described thus: Tasting in low fat salad dressing. The note with it: 0.5 ppm in low fat salad dressing (13.6% fat). The method, then:
as §8
low fat salad dressing (13.6% Fat, 8%, carbohydrates (of which 5.3% sugar))
as §12
Calve Salad Dressing Low Fat (13.6% Fat):
Base is Calve salad dressing (market product)
as §11
Low fat salad dressing (13.6% Fat)

Experiment [8] can be described thus: Tasting in low fat mayonnaise. Particulars: 0.5 ppm in low fat mayonnaise (27% fat). The method, then: as §8
Low fat Mayonnaise (27% Fat, 9% carbohydrates (of which 5% sugar), 1.4% salt)
as §12
Calve 60% Reduced Fat Mayonnaise
Base is Calve Mayonnaise 60% reduced fat (market Product)
as §11
Low fat Mayonnaise (27% Fat)

The next experiment can be described thus: Tasting in cheese sauce. The note with it: 0.5 PPM in cheese sauce 5% fat 1.6% salt. Here is the method: as §8
Cheese sauce: 5% fat 1.6% salt
as §11
Cheese Sauce: 5% Fat 1.6% Salt

A short description of the next experiment: Tasting in soy sauce. The note with it: 0.5 ppm in pure salt reduced kikoman soy sauce (9% salt). The method, then:
as §8, §9, §10, §12
Test on Kikkoman Soy Sauce Low Salt
Base is Kikkoman soy sauce
as §11

Experiment [9] is described as follows: Tasting on fried potato snack product. Particulars: 35% fat, cheese seasoning. Here is the method: as §8
A snack product consisting of a fried potato base, containing 35% fat and flavored with cheese seasoning containing salt, MSG, dairy, organic acids, sugars, and a flavour formulation. The following compounds were added to the snack product at the indicated levels and the tasting results are reported: […]

The nature of experiment [10]: Tasting in vanilla milk 0.15% fat. Particulars: 1 ppm, 4% sucrose, Vaniline 10 ppm + vanilla extract 0.03%. Here is the method:
as §12
Base: Milk 0.15% fat, sweetened with 4% sucrose by weight, flavoured with proprietary
Vaniline flavour @ 10 ppm+Vanilla ext. @ 0.03%
as §1
Comparison in a Vanilla Milk Drink
Vaniline @ 10 ppm+Vanilla extract @ 0.03%
Base: Milk 0.15% fat, sweetened with 4% sucrose by weight, flavoured with proprietary Vaniline @ 10 ppm+Vanilla extract @ 0.03%

Experiment [11] can be described thus: Tasting in strawberry flavoured sugar sweetened yoghurt. Particulars: 2 ppm, 1.5% fat yoghurt, 8% sucrose, strawberry flavour 0.015%. Here is the method:
Strawberry Flavoured Sugar Sweetened Yoghurt
In a 1.5% fat yoghurt base, sweetened with 8% sucrose by weight, flavoured with a proprietary strawberry flavour @ 0.015% several different N-acyl aminoacids were added.
as §12
Test in a Strawberry Yoghurt
Base: Yoghurt 1.5% fat yoghurt, 8% sucrose, proprietary strawberry flavour @ 0.015%
as §2

Experiment [12] is described as follows: Tasting in strawberry drink. The note with it: 0.5 ppm; 7% sucrose, 0.1% citric acid, strawberry flavour 0.015%. The method, then:
as §12
Comparison in a Strawberry Drink
Base is 7% sucrose, 0.1% citric acid, and a proprietary strawberry flavour @ 0.015%
as §1
Base is water, 7% sucrose, 0.1% citric acid, proprietary strawberry flavour @ 0.015%
as §2
Test in a Strawberry Drink
Base is 7% sucrose, 0.1% citric acid, proprietary strawberry flavour @ 0.015%

Experiment [13] in a line: Test in pear flavoured drink. The note with it: 1 ppm; water, 7% sugar (8% elsewhere in the source), 0.1% citric acid, pear flavour 0.025%. Here is the method:
as §12
Test in Pear Flavoured Drink:
Base: water, 7% sugar, 0.1% citric acid, proprietary pear flavour at 0.025%
as §1
Comparison in a Pear Drink
Base is water, 8% sugar, 0.1% citric acid, proprietary pear flavour at 0.025%

Experiment [14] is described as follows: Test in pineapple flavoured drink. The note with it: 1 ppm; water, 8% sugar, 0.1% citric acid, pineapple flavour 0.03%. The method, then:
as §12
Test in Pineapple Flavoured Drink:
Base is water, 8% sugar, 0.1% citric acid and proprietary pineapple flavour at 0.03%
as §1

Entries after “also recorded” stand apart in the source; their conditions may differ.

For the compound `CCCCC/C=C\C/C=C\CCCCCCCC(=O)N1CCC[C@H]1C(=O)O` [C18:2-Pro, N-linoleoyl-Pro], the tasting result was “more sweet, sugar-like, very juicy and long lasting sweet, salivating” in [1]; “very juicy, authentic orange” in “Test in orange beverage”; “very fresh, enhances sweet juicy orange notes, characteristic of authentic fresh orange fruit. Additionally, the off-notes of the high intensity sweetener were suppressed” in the experiment “Test on Tang”; “more sweet, sugar-like, very juicy and long lasting sweet, salivating, syrupy” in experiment [2]; “more sweet, sugar-like, very juicy and long lasting sweet, salivating” in experiment [3]; “very juicy, more citral like, very authentic” in “Test in lemon beverage”.

As to `CCCCCCCC/C=C\CCCCCCCC(=O)NC1(C(=O)O)CC1` [C18:1-ACCA, N-oleoyl 1-amino-cyclopropyl carboxylic acid], the tasting result was “strong saltiness lingering and with a strong body and mouthfeel” in the experiment “Tasting in fish sauce”; “more salty, fatty, total profile is enhanced” in “Tasting in beef jus”; “Saltier, Stronger and more umami” in experiment [4] (0.2 PPM in chicken bouillon base); “More body and fatty notes, salivating and good aftertaste” in [4] (0.5 PPM in chicken bouillon base); “Strong umami, lingering cheese bite” in experiment [5]; “Increased salty” in experiment [6] (0.5 ppm on air expanded base). In addition, the tasting result in [6] (1 ppm on air expanded base) was “Increased Umami, salty”; in [7], “more mouthfeel with body and less acidic; also recorded: Increased mouthfeel body less acidic”; in [8], “nicely balanced compositions with a full mouthfeel and a more eggy taste; also recorded: Nice balanced, full mouthfeel, increased eggyness”; in “Tasting in cheese sauce”, “Strong umami, cheese bite, expanding”; in “Tasting in soy sauce”, “strong upfront saltiness lingering, very strong saltiness”; in experiment [9] (0.5 ppm on fried potato snack), “Increased salty”. In addition, the tasting result in experiment [9] (1 ppm on fried potato snack) is on record as “Increased Umami, salty”.

In the case of `CCCCC/C=C\C/C=C\CCCCCCCC(=O)N[C@@H](CC(N)=O)C(=O)O` [C18:2-asn, N-linoleoyl-Asn], the tasting result in experiment [10] is reported as “sweeter more fatty round”; in [11], “green fresh, nice, fatty nice fuller”; in experiment [12], “fuller, sweeter, jammy aftertaste, long lasting”; in experiment [13], “very ripe, authentic pear, very juicy, long lasting”; in experiment [14], “very ripe, jammy, long lasting, authentic”.
